The values that follow come from US20050170502A1, “Methods for maintaining hepatocytes in culture and for differentiating embryonic stem cells along a hepatocyte lineage” (REGENTS OF THE UNIVERSITY OF CALIFORNIA, priority 2003, published 2005).

In the first data set the test system is mouse ES cells (ES-D3). The data set is described as follows: Hepatocyte-specific gene expression in differentiated mouse ES cells, real-time quantitative RT-PCR. The note with it: also in murine ES cells. The protocol:
Mouse ES cell line ES-D3 and mouse STO fibroblasts were obtained from the American Type Culture Collection, Manassas, Va. ES cells were expanded on STO fibroblast feeder layers in Dulbecco's modified Eagle's medium (DMEM) (unless specified, cell culture supplies were from Invitrogen, Carlsbad, Calif.) containing 15% fetal bovine serum (FBS), 1 mM L-glutamine, 60 μM non-essential amino acid solution, 0.1 mM 2-mercaptoethanol, 10 mM HEPES (Sigma-Aldrich, Saint Louis, Mo.), 1400 U/ml leukemia inhibitory factor (LIF) (Chemicon International, Temecula, Calif.), and penicillin/streptomycin at standard concentrations. To prepare feeder layers, STO fibroblasts were cultured until confluent and treated with 10 μg/ml mitomycin C (Sigma-Aldrich) for 4 hours. Mitomycin C-treated STO fibroblasts were then re-seeded at a density of 7-8×10^4/cm^2 one day before plating ES cells. […] These culture conditions stimulated the formation of non-attached embryoid bodies (EBs): Five days later, EBs were placed on different substratum pre-coated 6-well tissue culture plates in various media formulations, and the expression of hepatocyte-specific genes was examined at day 8-75 (FIG. 1A). Substrata used for pre-coating included gelatin, collagen type I (Sigma-Aldrich), collagen type IV, laminin, fibronectin and poly-D-lysine (Becton Dickinson Labware, Bedford, Mass.). The following culture media were tested for ES cells differentiation: DMEM, Williams' medium E (WME), and Iscove's modified Dulbecco's medium (IMDM), all supplemented with 10 to 20% FBS, 0.3 mM monothioglycerol (Sigma-Aldrich), penicillin/streptomycin at standard concentrations, and a range of growth and differentiation factors including hepatocyte growth factor (HGF, 20 ng/ml), nerve growth factor (NGF, 100 ng/ml), epidermal growth factor (EGF, 100 ng/ml), acidic fibroblast growth factor (aFGF, 100 ng/ml), basic fibroblast growth factor (bFGF, 100 ng/ml) (Li, X. et al., J. Cell. Biol. 153:811-822 (2001)), all-trans-retinoic acid (RA, 1 μM) (Makita, T. et al., Genes. Dev. 15:889-901 (2001)), oncostatin M (OnM, 10 ng/ml) (Kamiya, A. et al., EMBO. J. 18:2127-2136 (1999)), bovine insulin (0.126 U/ml), dexamethasone (100 nM) (all from Sigma-Aldrich), and human insulin (0.126 U/ml) (Eli Lilly and Company, Indianapolis, Ind.). Growth and differentiation factors were added to the culture media at final concentrations as indicated above. In addition, EBs were also cultured in medium that was previously used to induce multipotent adult progenitor cells (MAPC) from mouse bone marrow to differentiate into functional hepatocyte-like cells (Schwartz, R. E. et al., J. Clin. Invest. 109:1291-1302 (2002)).
Total RNA was extracted with RNeasy Mini Kit (Qiagen, Valencia, Calif.). Real time quantitative RT-PCR was employed for the determination of gene expression as described in detail previously by our group (Wege, H. et al., Gastroenterology 124:432-444 (2003)). In brief, one μg RNA was used to generate cDNA after treatment with deoxyribonuclease I (Invitrogen). First-strand synthesis was performed employing the Thermoscript RT-PCR System (Invitrogen) with random hexamers. Relative mouse or human gene expression analysis (ΔΔCT) was performed by real-time quantitative PCR with the ABI Prism 7700 Sequence Detection System and SYBR PCR Green Master Mix or TaqMan PCR Master Mix (Applied Biosystems, Foster City, Calif.). Primer pairs and hybridization probes for mouse or human albumin, prealbumin (transthyretin), alphal-antitrypsin (α1-AT), glucose-6-phosphatase (G6P), cytokeratin 19 (CK19), γ-glutamyl transferase (GGT), and β-actin, were synthesized, and primer concentrations were optimized for specific amplification at 60° C. […] Expression levels were normalized using mouse β-actin or human glyceraldehyde phosphate dehydrogenase (GAPDH) as an endogenous control. Normalized expression of hepatocyte-specific genes was compared to levels detected in primary adult mouse or human hepatocytes.
As to “human insulin: human insulin (Eli Lilly and Company), growth factor added to the culture medium”, the “production of hepatocyte-specific proteins compared with bovine insulin” value was “higher production”.

Staying with this data set, now noted: mouse ES cells, IMDM, collagen type I, day 33, FIG. 2A.
On to aFGF: acidic fibroblast growth factor, for which the “albumin gene expression (effect of individual growth and differentiation factors)” value is given as “only minor positive or even negative effects”.

For the compound “human insulin: human insulin (Eli Lilly and Company), growth factor added to the culture medium”, the “albumin gene expression (effect of individual growth and differentiation factors)” value was “most effective”. Turning to HGF: hepatocyte growth factor, the “albumin gene expression (effect of individual growth and differentiation factors)” value is “only minor positive or even negative effects”. Turning to `CC1=C(/C=C/C(C)=C/C=C/C(C)=C/C(=O)O)C(C)(C)CCC1` [RA, all-trans-retinoic acid], the “albumin gene expression (effect of individual growth and differentiation factors)” value is “only minor positive or even negative effects”. Regarding NGF: nerve growth factor, the “albumin gene expression (effect of individual growth and differentiation factors)” value is given as “only minor positive or even negative effects”.

Take “hEGF: human epidermal growth factor (NSDSECPLSHDGYCLHDGVCMYIEALDKYACNCVVGYIGERCQYRDLKWWELR; UniProt P01133 971-1023, looked up)”: the “albumin gene expression (effect of individual growth and differentiation factors)” value is listed as “only minor positive or even negative effects”. In the case of bFGF: basic fibroblast growth factor, the “albumin gene expression (effect of individual growth and differentiation factors)” value is listed as “only minor positive or even negative effects”. Turning to “mEGF: mouse epidermal growth factor (NSYPGCPSSYDGYCLNGGVCMHIESLDSYTCNCVIGYSGDRCQTRDLRWWELR; not fully specified; Epidermal growth factor; UniProt P01132 977-1029, looked up)”, the “albumin gene expression (effect of individual growth and differentiation factors)” value is on record as “only minor positive or even negative effects”. For the compound `C[C@@H]1C[C@H]2[C@@H]3CCC4=CC(=O)C=C[C@]4(C)[C@@]3(F)[C@@H](O)C[C@]2(C)[C@@]1(O)C(=O)CO` [dexamethasone, 9-fluoro-11β,17,21-trihydroxy-16α-methylpregna-1,4-diene-3,20-dione], the “albumin gene expression (effect of individual growth and differentiation factors)” value was “most effective”.
